Results on one molecule are retold here after patent US9427433B2, “Methods and compositions for enhancing fertility and/or inhibiting pregnancy failure and restoring glucose tolerance” (Queen's University at Kingston, priority 2011, dated 2016).

SMILES strings stand for the structures.

Assay [1] concerns diabetic NOD mice. Description: Weekly non-fasting blood glucose monitoring. Format: in vivo, mouse. As to conditions: FIG. 16A. How it is done:
Through the use of Ultra Glucosemeter (Accu-Chek Aviva/Roche Diagnostic, Laval, Quebec, Canada) blood glucose levels for all mice were monitored via tail venipuncture once a week on a regular basis beginning at the age of 8 weeks. Animals with non-fasting or those having blood glucose values ≧14.9 mmol/L after the glucose challenge (glucose tolerance) test were identified as diabetic. […] The selected mice were 9 weeks old and were treated with 0.1 mg/kg q2d of tacrolimus (Prograf (5 mg/ml), Astellas) subcutaneously administered in 0.2 ml saline for three weeks after which animals were mated to males of the same strain (See FIG. 1). Vehicle (0.2 ml saline, s.q.) treated hyperglycemic NOD female mice were allowed two weeks in diabetes before they were mated to males of the same strain. Facial (mandibular) venous blood samples were collected from treated animals at 24 and 48 hours between injections and at pregnancy days 0.5, 2.5, 4.5, 6.5, 8.5, 10.5, 12.5, 14.5, 16.5 and 18.5 respectively following a standard procedure for facial bleed in mice (Golde et al Lab Anim (NY) 2005 34:39-43).

The subject of assay [2] is NZO mice fed a high fat diet. Description: Fasting serum glucose, fasting serum insulin and glucose tolerance, comparison of macrolides. Format: in vivo, mouse. As to conditions: vs vehicle. How it is done:
Female mice were administered tacrolimus (0.1 mg/kg or 0.05 mg/kg, n=6/group), vehicle (n=10), pimecrolimus (0.1 mg/kg, n=6) or sirolimus (0.1 mg/kg, n=6) subcutaneously every other day for 3 weeks.
For the comparative evaluation of other macrolide drugs to tacrolimus, mice starting at 7 weeks of age were maintained on the high fat diet for a total of 13 weeks of study period. Mice were entered into the experiments when determined to be glucose intolerant as described above. Methods of drug administration and other experimental methods were as described above.
Glucose Tolerance Test (GTT): was performed according to standard protocol (Ayala et al 2010). Briefly, basal glucose levels were measured for conscious mice individually caged in 1000 cc plastic mouse caging using a one-touch ultra glucose strips and meter (Acqui-check Aviva, Roche, Montreal, Canada) and approximately 30 microliters of blood obtained via tail venipuncture prior to fasting for six hours in cages equipped with hardwood bedding. Fasting blood glucose was recorded at the end of the six hours fasting period. Mice were then tested for oral glucose tolerance (OGTT) or for insulin sensitivity (Si). For OGTT alert mice were then given 20% D-glucose (2 g/kg body weight) sterile syrup administered orally. For Si experiments mice were given 20% D-glucose (2 g/kg body weight) sterile syrup by intraperitoneal administration through a 1 ml D29 gage “½” insulin syringe (Fisher Scientific, Montreal, Canada). Then after, blood glucose was recorded at 15, 30, 45, 60, 90 and 120 minutes respectively. For Si experiments blood glucose was determined only at 15 minutes. Glucose tolerance graphs were generated by blotting mean±standard error of the mean (SEM) of the recorded glucose data per mouse per minute collection time. One way analysis of variance (ANOVA) followed by student t-test was performed to determine alpha values for statistical differences among mean blood glucose values across experimental mice groups.
Fasting immuno-reactive mouse insulin levels were quantitatively determined in citrated platelet-free plasma samples obtained from 6 hours-fasting mice using an Ultrasensitive mouse Insulin Eliza kit (#90080, Crystal chem., IL, USA) according to the manufacturer instructions. Briefly, platelet-free plasma were isolated from freshly obtained citrated whole blood samples of fasting mice and the provided insulin standards were incubated overnight on a shaking platform at 4 C^0 in a 96 wells plate coated with Guinea pig anti-insulin. Afterwards, unbound sample materials were thoroughly washed with the supplied wash buffers and the bound guinea pig anti-insulin/mouse insulin complex immobilized to the microplate wells were incubated with Horseradish peroxidase (HRP)-conjugated anti-insulin antibody for 40 minutes at room temperature with continuous agitation. Excess unbound HRP-conjugated anti-insulin antibodies were then washed excessively with wash buffers and the HRP-mediated color reaction was developed with the addition of 3,3′,5,5′ tetramethylbenzidine (TMB) substrate solution. The amount of insulin (ng/ml) present in the test samples were then measured via interpolation using the standard curve generated by plotting absorbance (at A^0450-A^0635) versus the corresponding concentration of a wide range (0.1-12.8 ng/ml) of mouse insulin standards according to the provider's instructions. Graphic representation of differences in mean±sem of plasma insulin among different groups of mice were blotted using Prism5 (La Jolla, Calif., USA) software and statistically significant differences (at 95% confidence) were calculated for the different test groups of mice using one way ANOVA followed by Bonferroni modified student t-test comparing differences between individual experimental groups.

[3] abbreviates: 0.1 mg/kg s.c. every other day for 3 weeks.

On to `C=CC[C@@H]1/C=C(\C)C[C@H](C)C[C@H](OC)[C@H]2O[C@@](O)(C(=O)C(=O)N3CCCC[C@H]3C(=O)O[C@H](/C(C)=C/[C@@H]3CC[C@@H](O)[C@H](OC)C3)[C@H](C)[C@@H](O)CC1=O)[C@H](C)C[C@@H]2OC` [tacrolimus], for which the “weekly non-fasting blood glucose (glycemic phenotype)” value in assay [1] is “effective in restoring normal glycemic phenotype”. For the same molecule, in assay [2] (setting [3]), the “fasting basal serum glucose” value is given as “normalized fasting basal serum glucose concentrations” and the “fasting basal serum insulin” value is reported as “significantly reduced fasting basal serum insulin concentrations”. Moreover, the “insulin secretion in response to a hyperglycemic challenge” value in assay [2] (tacrolimus 0.1 or 0.05 mg/kg, pimecrolimus 0.1 mg/kg, sirolimus 0.1 mg/kg s.c. every other day for 3 weeks) is “significantly improved insulin secretion”.
